According to ChEMBL document CHEMBL2074419, “Induction of multidrug resistance protein 3 in rat liver is associated with altered vectorial excretion of acetaminophen metabolites” (Drug Metab Dispos, 2003):

How the values were obtained:
Type in all cases: functional, organism-based, Sprague-Dawley
[1] = molecular target: T1, ATP-binding cassette sub-family C member 2 (Rattus norvegicus, UniProt Q63120); assay: (§1) TP_TRANSPORTER: quantitative PCR in vivo, liver of SD rat
[2] = molecular target: T2, ATP-binding cassette sub-family C member 3 (Rattus norvegicus, UniProt O88563); assay: as §1
[3] = molecular target: T3, ATP-binding cassette subfamily C member 4 (Rattus norvegicus, UniProt F1M3J4); assay: as §1
T3 sequence (F1M3J4 whole entry): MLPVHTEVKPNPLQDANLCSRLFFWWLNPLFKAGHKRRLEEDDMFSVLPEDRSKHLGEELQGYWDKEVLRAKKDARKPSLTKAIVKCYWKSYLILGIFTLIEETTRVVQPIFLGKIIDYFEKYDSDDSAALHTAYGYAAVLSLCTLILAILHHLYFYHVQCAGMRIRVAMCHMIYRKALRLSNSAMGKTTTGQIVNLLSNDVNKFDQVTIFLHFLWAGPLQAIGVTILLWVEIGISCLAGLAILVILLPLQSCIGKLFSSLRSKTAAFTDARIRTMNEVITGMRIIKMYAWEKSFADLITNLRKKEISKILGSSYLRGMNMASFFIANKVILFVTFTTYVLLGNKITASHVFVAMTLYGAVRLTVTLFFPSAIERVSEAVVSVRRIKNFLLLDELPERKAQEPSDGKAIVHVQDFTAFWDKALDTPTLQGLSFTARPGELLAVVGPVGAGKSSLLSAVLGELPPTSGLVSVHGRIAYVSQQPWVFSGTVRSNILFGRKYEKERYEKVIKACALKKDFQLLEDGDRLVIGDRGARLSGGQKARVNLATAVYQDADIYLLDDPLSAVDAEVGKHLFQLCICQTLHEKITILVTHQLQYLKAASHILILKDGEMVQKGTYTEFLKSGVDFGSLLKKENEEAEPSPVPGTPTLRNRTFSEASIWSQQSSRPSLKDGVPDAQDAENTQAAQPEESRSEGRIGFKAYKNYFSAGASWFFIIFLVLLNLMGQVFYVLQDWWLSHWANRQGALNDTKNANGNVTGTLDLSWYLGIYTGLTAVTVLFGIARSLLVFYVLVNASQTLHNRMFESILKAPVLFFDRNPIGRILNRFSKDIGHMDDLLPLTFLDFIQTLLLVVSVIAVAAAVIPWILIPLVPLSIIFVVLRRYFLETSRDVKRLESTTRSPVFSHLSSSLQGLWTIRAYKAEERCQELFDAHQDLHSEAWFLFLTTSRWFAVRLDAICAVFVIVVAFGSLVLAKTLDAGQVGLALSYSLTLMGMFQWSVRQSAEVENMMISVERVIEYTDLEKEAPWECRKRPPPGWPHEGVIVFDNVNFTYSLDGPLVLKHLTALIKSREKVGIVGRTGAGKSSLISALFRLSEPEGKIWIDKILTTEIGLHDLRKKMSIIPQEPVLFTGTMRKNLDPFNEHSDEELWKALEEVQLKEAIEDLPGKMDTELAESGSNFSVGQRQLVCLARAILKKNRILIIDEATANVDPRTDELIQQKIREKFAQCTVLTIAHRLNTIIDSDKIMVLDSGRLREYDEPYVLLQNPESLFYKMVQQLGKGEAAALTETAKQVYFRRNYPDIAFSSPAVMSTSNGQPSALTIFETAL

[4] = molecular target: T1, ATP-binding cassette sub-family C member 2; assay: (§2) TP_TRANSPORTER: Western in vivo, liver of SD rat
[5] = molecular target: T2, ATP-binding cassette sub-family C member 3; assay: as §2
[6] = molecular target: T1, ATP-binding cassette sub-family C member 2; assay: (§3) TP_TRANSPORTER: quantitative PCR in vivo, kidney of SD rat
[7] = molecular target: T2, ATP-binding cassette sub-family C member 3; assay: as §3
[8] = molecular target: T3, ATP-binding cassette subfamily C member 4; assay: as §3

Measured: Activity

T1 sequence (Q63120 whole entry): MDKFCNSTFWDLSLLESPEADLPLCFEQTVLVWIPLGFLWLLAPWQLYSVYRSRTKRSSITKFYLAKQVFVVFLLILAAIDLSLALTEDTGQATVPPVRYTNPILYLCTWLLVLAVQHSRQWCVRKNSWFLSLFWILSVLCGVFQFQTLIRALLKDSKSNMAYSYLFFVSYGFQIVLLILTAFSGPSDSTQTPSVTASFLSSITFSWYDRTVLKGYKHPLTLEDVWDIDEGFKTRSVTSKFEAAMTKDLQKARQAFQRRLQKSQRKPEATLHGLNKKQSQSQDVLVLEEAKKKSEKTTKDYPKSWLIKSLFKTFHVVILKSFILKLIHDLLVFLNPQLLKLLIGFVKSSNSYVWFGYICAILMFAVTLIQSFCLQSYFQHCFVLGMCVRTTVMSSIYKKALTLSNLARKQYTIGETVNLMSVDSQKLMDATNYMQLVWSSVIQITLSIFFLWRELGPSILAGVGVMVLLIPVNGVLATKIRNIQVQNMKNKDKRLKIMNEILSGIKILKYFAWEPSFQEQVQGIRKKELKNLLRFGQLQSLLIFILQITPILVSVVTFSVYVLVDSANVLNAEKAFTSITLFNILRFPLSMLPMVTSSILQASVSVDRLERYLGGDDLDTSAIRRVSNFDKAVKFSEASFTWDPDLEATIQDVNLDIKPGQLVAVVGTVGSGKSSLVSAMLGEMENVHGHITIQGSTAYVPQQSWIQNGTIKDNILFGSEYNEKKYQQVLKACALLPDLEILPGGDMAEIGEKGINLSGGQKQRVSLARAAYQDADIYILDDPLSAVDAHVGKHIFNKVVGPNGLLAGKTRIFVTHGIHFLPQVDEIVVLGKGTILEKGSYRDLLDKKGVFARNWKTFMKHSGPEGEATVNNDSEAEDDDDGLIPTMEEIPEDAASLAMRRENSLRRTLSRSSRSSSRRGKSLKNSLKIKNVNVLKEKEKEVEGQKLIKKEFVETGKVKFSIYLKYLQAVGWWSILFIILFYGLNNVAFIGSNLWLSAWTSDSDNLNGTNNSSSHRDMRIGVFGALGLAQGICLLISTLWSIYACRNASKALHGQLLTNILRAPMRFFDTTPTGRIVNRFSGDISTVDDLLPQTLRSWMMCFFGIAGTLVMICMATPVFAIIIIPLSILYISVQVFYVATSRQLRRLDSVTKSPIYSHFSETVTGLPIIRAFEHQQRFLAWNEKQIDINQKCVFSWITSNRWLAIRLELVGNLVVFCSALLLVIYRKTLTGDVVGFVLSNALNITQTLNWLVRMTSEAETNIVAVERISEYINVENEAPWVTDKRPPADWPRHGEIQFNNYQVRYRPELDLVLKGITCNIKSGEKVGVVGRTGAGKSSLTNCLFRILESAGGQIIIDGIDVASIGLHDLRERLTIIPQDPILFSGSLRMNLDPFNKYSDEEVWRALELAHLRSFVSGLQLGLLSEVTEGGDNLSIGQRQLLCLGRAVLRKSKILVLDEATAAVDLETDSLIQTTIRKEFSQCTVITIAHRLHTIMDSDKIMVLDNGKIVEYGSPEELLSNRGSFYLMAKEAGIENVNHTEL
T2 sequence (O88563 whole entry): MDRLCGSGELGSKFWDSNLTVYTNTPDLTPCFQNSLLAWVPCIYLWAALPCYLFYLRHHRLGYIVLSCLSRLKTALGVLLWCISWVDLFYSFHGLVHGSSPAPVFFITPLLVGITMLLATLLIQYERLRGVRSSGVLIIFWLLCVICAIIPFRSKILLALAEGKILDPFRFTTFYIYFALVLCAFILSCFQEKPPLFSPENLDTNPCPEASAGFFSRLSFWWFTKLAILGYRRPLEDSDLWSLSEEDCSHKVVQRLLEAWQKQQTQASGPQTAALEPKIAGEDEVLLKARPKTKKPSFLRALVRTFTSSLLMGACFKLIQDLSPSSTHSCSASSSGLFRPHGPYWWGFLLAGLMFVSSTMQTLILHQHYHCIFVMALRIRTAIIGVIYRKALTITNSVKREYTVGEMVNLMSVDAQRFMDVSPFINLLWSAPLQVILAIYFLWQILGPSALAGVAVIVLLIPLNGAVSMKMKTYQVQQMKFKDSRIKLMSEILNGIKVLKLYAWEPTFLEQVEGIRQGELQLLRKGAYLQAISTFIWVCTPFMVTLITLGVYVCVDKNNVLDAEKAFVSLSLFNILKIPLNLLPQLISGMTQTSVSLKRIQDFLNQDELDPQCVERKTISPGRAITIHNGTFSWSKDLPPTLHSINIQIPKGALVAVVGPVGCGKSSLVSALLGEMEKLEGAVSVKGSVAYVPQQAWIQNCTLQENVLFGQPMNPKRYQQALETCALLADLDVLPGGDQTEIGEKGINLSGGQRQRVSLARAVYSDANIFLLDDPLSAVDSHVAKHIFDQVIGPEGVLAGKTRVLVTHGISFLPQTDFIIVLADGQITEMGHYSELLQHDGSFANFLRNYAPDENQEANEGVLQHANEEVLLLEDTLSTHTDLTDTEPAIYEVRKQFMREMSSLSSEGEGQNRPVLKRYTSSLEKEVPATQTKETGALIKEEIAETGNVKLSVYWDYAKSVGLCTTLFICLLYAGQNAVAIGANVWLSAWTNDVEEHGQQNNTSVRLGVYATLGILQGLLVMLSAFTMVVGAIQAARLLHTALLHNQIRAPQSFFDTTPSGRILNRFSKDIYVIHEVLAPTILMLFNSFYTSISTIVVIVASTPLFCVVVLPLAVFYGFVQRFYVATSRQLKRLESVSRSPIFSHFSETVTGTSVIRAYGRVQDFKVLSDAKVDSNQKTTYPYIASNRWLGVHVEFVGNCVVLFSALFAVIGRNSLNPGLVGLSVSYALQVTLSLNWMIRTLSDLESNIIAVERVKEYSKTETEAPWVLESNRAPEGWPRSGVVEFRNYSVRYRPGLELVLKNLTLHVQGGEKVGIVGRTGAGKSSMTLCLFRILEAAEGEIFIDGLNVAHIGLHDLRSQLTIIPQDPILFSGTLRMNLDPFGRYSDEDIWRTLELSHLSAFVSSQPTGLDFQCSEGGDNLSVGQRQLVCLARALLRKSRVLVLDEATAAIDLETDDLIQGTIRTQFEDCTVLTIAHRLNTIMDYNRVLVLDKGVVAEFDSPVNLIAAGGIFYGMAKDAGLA

c1ccc([C@H]2O[C@@H]2c2ccccc2)cc1 (relative stereo)
inducer []: [1] | [2] | [3] | [4] | [5]

C=CCSCC=C [DIALLYL SULFIDE]
inducer []: [6] | [7] | [8] | [2] | [3] | [4] | [5]

Cc1c(-c2cnccn2)ssc1=S [OLTIPRAZ]
inducer []: [7] | [1] | [2] | [4] | [5]

CCC1(c2ccccc2)C(=O)NC(=O)NC1=O [PHENOBARBITAL]
inducer []: [2] | [5]
